Results taken from US20120157471A1, “BENZIMIDAZOLE DERIVATIVES” (PFIZER INC., priority 2009, published 2012).

Legend:
[1] = target: T1, human Smo (amino acids 181-787) (Homo sapiens, UniProt Q99835); test: Smo radioligand competition binding assay (displacement of 3H-PF-03451358 from HEK293 membranes); settings: for inhibition at 0.05 µM: 0.05 μM test compound, displacement of 3H-PF-03451358, read-out: SMO % inh. @ 0.05 μM; for IC50: radioligand competition binding
T1 construct: expressed in transfected cells; membrane preparation
T1 sequence (Q99835 181-787): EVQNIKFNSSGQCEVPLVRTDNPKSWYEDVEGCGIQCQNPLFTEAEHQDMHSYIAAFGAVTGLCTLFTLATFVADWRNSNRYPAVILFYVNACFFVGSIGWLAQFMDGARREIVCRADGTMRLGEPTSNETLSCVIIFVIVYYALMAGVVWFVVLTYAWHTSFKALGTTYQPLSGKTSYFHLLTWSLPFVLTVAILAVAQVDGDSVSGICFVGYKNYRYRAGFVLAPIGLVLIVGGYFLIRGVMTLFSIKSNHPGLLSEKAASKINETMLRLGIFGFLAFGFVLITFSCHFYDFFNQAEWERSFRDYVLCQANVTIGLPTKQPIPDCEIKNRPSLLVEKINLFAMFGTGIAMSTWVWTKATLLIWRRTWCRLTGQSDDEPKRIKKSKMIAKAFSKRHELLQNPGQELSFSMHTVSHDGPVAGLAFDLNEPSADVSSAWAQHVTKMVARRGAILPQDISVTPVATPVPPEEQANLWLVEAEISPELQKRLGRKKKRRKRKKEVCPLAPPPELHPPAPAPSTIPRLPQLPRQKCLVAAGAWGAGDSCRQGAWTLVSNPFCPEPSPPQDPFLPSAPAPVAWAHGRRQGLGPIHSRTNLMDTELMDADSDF
Experimental: Membranes were prepared from a stable cell line created in HEK293FlpIn-TetR cells (Invitrogen) using FIp recombinase-mediated insertion of the pSecTag-FRT/V5-His vector containing a cDNA encoding amino acids 181-787 of human Smo fused to the murine lgk leader sequence to produce a cell surface expressed Smo 181-781 protein. Hygromycin-resistant clones were obtained and stained for LacZ expression (no expression indicates a correct knock-in of my fusion cDNA). LacZ-negative cells were analyzed for binding tritiated Smo antagonist PF-03451358. For membrane preparation, the HEK293 cells expressing Smo 181-781 were grown to 90% confluence in nine to fifteen 245 mm×245 mm×22 mm dishes, washed with Dulbecco's PBS (15 ml per dish) and harvested via scraping in 10 ml of DPBS. The cells were collected and centrifuged at 1500 rpm (400×g) for 10 min at 4° C. The cell pellets were re-suspended in 40 ml of cold DPBS and washed by centrifugation at 2300 rpm (950×g max) for 10 minutes at 4° C. The supernatant was aspirated and the cell pellet was snap frozen in a methanol/dry ice bath and stored at −70° C. For membrane preparation, 15 ml of Membrane Preparation Buffer (50 mM Tris-HCl pH 7.5, 250 mM sucrose with Roche complete protease cocktail tablets) is added to the tube containing the cell pellet, then cells are rapidly thawed, and homogenized using an Ultra-Turrax T8 (IKA Labortechnik) set on “6” for 15 seconds for 5-6 times in icy water bath. This homogenate was diluted up to 50 ml using Membrane Preparation Buffer and centrifuged at 35,000 rpm in a Beckman Ti45 rotor (140,000×g) for 35 minutes at 4° C. followed by aspiration of the supernatant and re-suspension of the pellet in 5 ml of Assay Buffer (50 mM Tris-HCl pH 7.5, 100 mM NaCl, 25 mM MgCl2, 1 mM EDTA, and 0.1% protease free bovine serum albumin). The re-suspended pellet is then homogenized in a glass tissue grinder. The re-suspended membranes are aliquoted (0.5 ml aliquots), snap frozen and stored at −70° C. Total protein in the membrane preparation is determined using the Pierce BCA protein assay (Pierce Chemical).
For the binding competition assay, 100 μl of Assay Buffer is added to all the wells of a 96 well GF/B filter plate (Millipore MultiScreen-HTS-FB cat# MSFBN6B50) for 10 minutes to pre-wet the filter prior to evacuation of the buffer (8 inches Hg for 8 seconds). To the pre-wet wells is added: 20 μl of Assay Buffer, 10 μl diluted test agent, 20 μl of ^3H-PF-3451358 (15 nM stock solution), and 50 μl of membrane preparation (40 μg total protein per well). The plates are sealed and mixed at room temperature for 5 min, incubated at room temperature for 2 hours, then washed 5 times with 100 μl/each of wash buffer and vacuum dried for 8 seconds at 8 inch Hg. The plate is then dried for one hour in a 60° C. oven prior to the addition of 45 μl of Microscint 20 (Packard, #6013621) to each well and incubation at RT for 30 minutes to 1 hour. The plate is counted in a TopCount scintillation counter (Perkin Elmer).
Data analysis uses Excel for % Inhibition and Graphpad Prism for IC50 calculation. Total binding (TB, in the absence of inhibitors)=average of ^3H PF-03451358 3 nM+SMO membrane (40 μg/wells (approx 5000-7000 CPM). Non-specific binding (NSB)=average of ^3H PF-03451358 (3 nM)+cold PF-03451358 (30 μM)+SMO membrane (approx 600-1200 CPM). Specific binding (SB)=(total binding−non-specific binding). % Inhibition=[1−(compound Specific binding/control Specific binding)]×100%. IC50 is calculated by fitting the data to the four parameter sigmoidal dose-response curve (variable slope) Y=Bottom+(Top-Bottom)/(1+10̂((LogEC50−X)*HillSlope)). X is the logarithm of the inhibitor concentration. Y is the response; Y starts at Bottom and goes to Top with a sigmoid shape.

[2] = tested on: Gli-Luc/MEF cells (Smo); test: Gli-Luc/MEF assay (Shh-stimulated luciferase reporter under the Gli response element); type: cell-based, mouse; settings: Mus musculus, MEF, 48 h
Experimental: The Gli-Luc/MEF cells obtained from Gli-Luc transgenic mice (Pfizer CoE, Genetically Modified Mice) contain a luciferase reporter gene under the control of the Gli response element. Luciferase activity stimulated with Sonic hedgehog ligand was inhibited by Smo inhibitors, and IC50 was subsequently calculated.
Plates were incubated at 37° C. and 5% CO2 overnight. On day two, cells were dosed with test compounds at a final concentration ranging from […] to 50 μM at a 3-time series dilution. Immediately after dosing cells with compounds, recombinant mouse sonic hedgehog (Shh, R&D Systems 464-SH) was added to a final concentration of 2 μg/mL. The cells were incubated with compounds and Shh for 48 hours at 37° C. and 5% CO2. Luciferase assays were conducted on Day 4 using the Bright-Glo Luciferase assay system (Promega E2620) according to Promega's protocol. Briefly, Bright-Glo luciferase reagent was made up and 25 uL were added to each well of the 384-well plate containing media. Plates were kept at room temperature for 5 minutes, and then read on an Envision Luminescence plate reader (Perkin-Elmer). IC50 of the inhibition was calculated by using GraphPad Prism.

| SMILES | inhibition at 0.05 µM [1] [%] | IC50 [1] [nM] | IC50 [2] [nM] |
| --- | --- | --- | --- |
| Cn1c(-c2ccnc(N3CCC(O)CC3)c2)nc2ccccc21 [Example A-18, 1-[4-(1-methyl-1H-benzimidazol-2-yl)pyridin-2-yl]piperidin-4-ol] | 79 | 75 | 115 |
| COC(=O)NC1CCN(c2cc(-c3nc4ccccc4n3C)ccn2)CC1 [Example A-19, methyl {1-[4-(1-methyl-1H-benzimidazol-2-yl)pyridin-2-yl]piperidin-4-yl}carbamate] | 84 | 25 | 15 |
| Cn1c(-c2cc(N3CCC(S(C)(=O)=O)CC3)ncc2Cl)nc2ccccc21 [Example A-20, 2-{5-chloro-2-[4-(methylsulfonyl)piperidin-1-yl]pyridin-4-yl}-1-methyl-1H-benzimidazole] | 87 | 19 | 8 |
| Cn1c(-c2ccnc(N3CCN(S(C)(=O)=O)CC3)c2)nc2ccccc21 [Example A-21, 1-methyl-2-{2-[4-(methylsulfonyl)piperazin-1-yl]pyridin-4-yl}-1H-benzimidazole] | 78 | 152 | 90 |
| CC(=O)NC1CCN(c2cc(-c3nc4ccccc4n3C)c(Cl)cn2)CC1 [Example A-22, N-{1-[5-chloro-4-(1-methyl-1H-benzimidazol-2-yl)pyridin-2-yl]piperidin-4-yl}acetamide] | 94 | 11 | 6 |
| Cn1c(-c2cc(N3CCNCC3)ncc2Cl)nc2ccccc21 [Example A-23, 2-(5-chloro-2-piperazin-1-ylpyridin-4-yl)-1-methyl-1H-benzimidazole] | 88 | 56 | 31 |
| Cn1c(-c2cc(N3CCC(S(C)(=O)=O)C3)ncc2Cl)nc2ccccc21 (stereo not drawn) [Example A-24, 2-{5-chloro-2-[3-(methylsulfonyl)pyrrolidin-1-yl]pyridin-4-yl}-1-methyl-1H-benzimidazole] | 82 | 54 | 20 |
| Cn1c(-c2cc(N3CCC(O)CC3)ncc2Cl)nc2ccccc21 [Example A-25, 1-[5-chloro-4-(1-methyl-1H-benzimidazol-2-yl)pyridin-2-yl]piperidin-4-ol] | 91 | 8 | 7 |
| Cn1c(-c2cc(N3CC[C@@H](O)C3)ncc2Cl)nc2ccccc21 [Example A-26, (3R)-1-[5-chloro-4-(1-methyl-1H-benzimidazol-2-yl)pyridin-2-yl]pyrrolidin-3-ol] | 64 | 166 | 49 |
| CCS(=O)(=O)N1CCN(c2cc(-c3nc4ccccc4n3C)c(Cl)cn2)CC1 [Example A-27, 2-{5-chloro-2-[4-(ethylsulfonyl)piperazin-1-yl]pyridin-4-yl}-1-methyl-1H-benzimidazole] | 93 | 49 | 5 |
| Cn1c(-c2cc(N3CC[C@H](O)C3)ncc2Cl)nc2ccccc21 [Example A-28, (3S)-1-[5-chloro-4-(1-methyl-1H-benzimidazol-2-yl)pyridin-2-yl]pyrrolidin-3-ol] | 82 | 79 | 52 |
| CC(=O)N1CCN(c2cc(-c3nc4ccccc4n3C)ccn2)CC1 [Example A-29, 2-[2-(4-acetylpiperazin-1-yl)pyridin-4-yl]-1-methyl-1H-benzimidazole] | 78 | 61 | 110 |
| Cn1c(-c2cc(N3CCC(C)(O)CC3)ncc2Cl)nc2ccccc21 [Example A-30, 1-[5-chloro-4-(1-methyl-1H-benzimidazol-2-yl)pyridin-2-yl]-4-methylpiperidin-4-ol] | 96 | 28 | 11 |
| Cn1c(-c2ccnc(N3CCNCC3)c2)nc2ccccc21 [Example A-31] | 54 | 645 | 128 |
| COC(=O)NC1CCN(c2cc(-c3nc4ccccc4n3C)c(Cl)cn2)CC1 [Example A-32, methyl {1-[5-chloro-4-(1-methyl-1H-benzimidazol-2-yl)pyridin-2-yl]piperidin-4-yl}carbamate] | 89 | 7 | 1 |
| Cn1c(-c2cc(N3CCNC(=O)CC3)ncc2Cl)nc2ccccc21 [Example A-33, 1-[5-chloro-4-(1-methyl-1H-benzimidazol-2-yl)pyridin-2-yl]-1,4-diazepan-5-one] | 98 | 9 | 8 |
| Cn1c(-c2cc(N3CCOCC3)ncc2Cl)nc2ccccc21 [Example A-34, 2-(5-chloro-2-morpholin-4-ylpyridin-4-yl)-1-methyl-1H-benzimidazole] | 95 | 22 | 16 |
| Cn1c(-c2cc(N3CCC(NS(C)(=O)=O)CC3)ncc2Cl)nc2cccnc21 [Example A-36, N-{1-[5-chloro-4-(3-methyl-3H-imidazo[4,5-b]pyridin-2-yl)pyridin-2-yl]piperidin-4-yl}methanesulfonamide] | 93 | 23 | 12 |
| CC(=O)N1CCCN(c2cc(-c3nc4cccnc4n3C)c(Cl)cn2)CC1 [Example A-39, 2-[2-(4-acetyl-1,4-diazepan-1-yl)-5-chloropyridin-4-yl]-3-methyl-3H-imidazo[4,5-b]pyridine] | 92 | 45 | 30 |
| Cn1c(-c2cc(N3CC(NS(C)(=O)=O)C3)ncc2Cl)nc2ccccc21 [Example A-41, N-{1-[5-chloro-4-(1-methyl-1H-benzimidazol-2-yl)pyridin-2-yl]azetidin-3-yl}methanesulfonamide] | 98 | 7 | 4 |
| CC(=O)NC1CCN(c2cc(-c3nc4ccccc4n3C)c(Cl)cn2)C1 (stereo not drawn) [Example A-42, N-{1-[5-chloro-4-(1-methyl-1H-benzimidazol-2-yl)pyridin-2-yl]pyrrolidin-3-yl}acetamide] | 72 | 131 | 92 |
| CC(=O)NC1CN(c2cc(-c3nc4ccccc4n3C)c(Cl)cn2)C1 [Example A-43, N-{1-[5-chloro-4-(1-methyl-1H-benzimidazol-2-yl)pyridin-2-yl]azetidin-3-yl}acetamide] | 86 | 190 | 92 |
| COC(=O)NC1CN(c2cc(-c3nc4ccccc4n3C)c(Cl)cn2)C1 [Example A-44] | 89 | 59 | 22 |
